Results on 49 compounds are retold here after patent publication US11802133B2, “Heterocyclic compounds as monoacylglycerol lipase inhibitors” (Hoffmann-La Roche Inc., priority 2018, dated 2023).

The structures appear in SMILES notation.

This test addresses MAGL (Homo sapiens (Human), UniProt Q99685). The experiment in a line: 2-AG assay: MAGL inhibitory activity by hydrolysis of 2-arachidonoylglycerol to arachidonic acid (mass spectrometry). The class given is biochemical. Particulars: measured in 2-AG assay (footnote [b]); 8 μM 2-arachidonoylglycerol. The protocol:
Alternatively, compounds were profiled for MAGL inhibitory activity by determining the enzymatic activity by following the hydrolysis of the natural substrate 2-arachidonoylglycerol resulting in arachidonic acid, which can be followed by mass spectrometry. This assay is hereinafter abbreviated “2-AG assay”.
A C18 SPE cartridge (G9205A) was used in an acetonitrile/water liquid setup. […] The activity of the compounds was calculated based on the ratio of intensities [arachidonic acid/d8-arachidonic acid].

Chain of MAGL (Q99685 whole entry, species assumed): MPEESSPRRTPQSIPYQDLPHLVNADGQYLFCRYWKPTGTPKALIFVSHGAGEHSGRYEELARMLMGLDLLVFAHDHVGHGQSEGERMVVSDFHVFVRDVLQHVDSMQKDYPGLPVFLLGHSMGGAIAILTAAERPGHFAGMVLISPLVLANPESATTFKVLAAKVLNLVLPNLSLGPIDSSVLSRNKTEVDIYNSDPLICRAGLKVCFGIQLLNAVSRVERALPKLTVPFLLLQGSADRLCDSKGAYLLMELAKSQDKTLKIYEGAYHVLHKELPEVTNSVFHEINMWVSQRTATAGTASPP

`O=C1CO[C@H]2CCN(C(=O)N3CC(COc4cc(C(F)(F)F)cc(F)n4)C3)C[C@H]2N1` [Example 222, (4aR,8aS)-6-[3-[[6-Fluoro-4-(trifluoromethyl)-2-pyridyl]oxymethyl]azetidine-1-carbonyl]-4,4a,5,7,8,8a-hexahydropyrido[4,3-b][1,4]oxazin-3-one] had an IC50 of 143 nM. With `O=C1CO[C@H]2CCN(C(=O)N3CCC(Oc4ccc(Cl)c(-c5ccc(Cl)cc5)c4F)CC3)C[C@H]2N1` [Example 212] the figure was 3 nM; with `O=C1CO[C@H]2CCN(C(=O)N3CCC(Cc4nc5ccncc5o4)CC3)C[C@H]2N1` [Example 124], 1040 nM; with `O=C1CO[C@H]2CCN(C(=O)N3CCC(Oc4cc(-n5cccn5)cc(C(F)(F)F)c4)CC3)C[C@H]2N1` [Example 201], 239 nM.

`O=C1CO[C@H]2CCN(C(=O)N3CCC(OCc4ccc(C(F)(F)F)cc4F)(C(F)(F)F)C3)C[C@H]2N1` (stereo partly shown) [Example 245] gave an IC50 of 1700 nM. For the compound `O=C1CO[C@H]2CCN(C(=O)N3CC(Oc4cccc(Br)c4Cl)C3)C[C@H]2N1` [Example 258], inhibition was half-maximal at 48 nM (IC50).

Regarding `Cc1c(COC2CN(C(=O)N3CC[C@@H]4OCC(=O)N[C@@H]4C3)C2C)cccc1C(F)(F)F` (stereo partly shown) [Example 253], the IC50 stood at 10 nM.

On to `O=C1CO[C@H]2CCN(C(=O)N3CCCC(COc4ccc(F)cc4Cl)CC3)C[C@H]2N1` (stereo partly shown) [Example 140], for which half-maximal inhibition (IC50) was put at 59 nM. With `O=C1CO[C@H]2CCN(C(=O)N3CC(Oc4ccc(C(F)(F)F)c(N5CC6(C5)CC(F)(F)C6)c4)C3)C[C@H]2N1` [Example 269, (+)-(4aR,8aS)-6-[3-[3-(6,6-Difluoro-2-azaspiro[3.3]heptan-2-yl)-4-(trifluoromethyl)phenoxy]azetidine-1-carbonyl]-4,4a,5,7,8,8a-hexahydropyrido[4,3-b][l,4]oxazin-3-one] the figure was 24 nM; with `O=C1CO[C@H]2CCN(C(=O)N3CC(Oc4cccc(N5CC6(CCCCO6)C5)c4Cl)C3)C[C@H]2N1` [Example 276, (+)-(4aR,8aS)-6-[3-[2-chloro-3-(5-oxa-2-azaspiro[3.5]nonan-2-yl)phenoxy]azetidine-1-carbonyl]-4,4a,5,7,8,8a-hexahydropyrido[4,3-b][1,4]oxazin-3-one], 19 nM; with `O=C1CO[C@H]2CCN(C(=O)N3CCC(COc4ccccc4Cl)C3)C[C@H]2N1` (stereo partly shown) [Example 91], 99 nM. As for `O=C1CO[C@H]2CCN(C(=O)N3CC(Oc4ccc(C(F)(F)F)c(C5CC5)c4)C3)C[C@H]2N1` [Example 260], the concentration for half-maximal inhibition (IC50) came out at 18 nM.

`N#Cc1cc(OC2CCN(C(=O)N3CC[C@@H]4OCC(=O)N[C@@H]4C3)CC2)ccc1C(F)(F)F` [Example 262]: the midpoint of inhibition, the IC50, lay at 181 nM. The compound `O=C1CO[C@H]2CCN(C(=O)N3CC(OCc4ccc(Cl)cc4Cl)C3)C[C@H]2N1` [Example 87] showed a half-maximal inhibitory concentration (IC50) of 6 nM.

Compound `O=C1CO[C@H]2CCN(C(=O)N3CCC(Oc4cc(C(F)(F)F)ccc4Cl)C3)C[C@H]2N1` (stereo partly shown) [Example 284] registered an IC50 of 72 nM.

In turn, `O=C1CO[C@H]2CCN(C(=O)N3CCC(Oc4ccc(Cl)c(-n5cccn5)c4)CC3)C[C@H]2N1` [Example 205] yielded a concentration for half-maximal inhibition (IC50) of 86 nM. `O=C1CO[C@H]2CCN(C(=O)N3CC(OCc4ccc(C(F)(F)F)c(Oc5ccc(F)cc5)n4)C3)C[C@H]2N1` [Example 243]: it took 10 nM to reach half-maximal inhibition (IC50).

With `Cc1cc(C(F)(F)F)ccc1OC1CCN(C(=O)N2CC[C@@H]3OCC(=O)N[C@@H]3C2)CC1` [Example 122], the midpoint of inhibition, the IC50, lay at 8 nM. With `Cc1cc(OC[C@@H]2CCN(C(=O)N3CC[C@@H]4OCC(=O)N[C@@H]4C3)C[C@@H]2C)cnc1C(F)(F)F` [Example 231] the figure was 5 nM. For `O=C1CO[C@H]2CCN(C(=O)N3CCCC(COc4ccc(F)cc4Cl)CC3)C[C@H]2N1` (stereo partly shown) [Example 141], 40 nM corresponded to half-maximal inhibition (IC50). `Cc1ccc(COC2CN(C(=O)N3CC[C@@H]4OCC(=O)N[C@@H]4C3)C2)c(C(F)(F)F)c1` [Example 217] came in with a 50% inhibitory concentration (IC50) of 10 nM. Consider `O=C1CO[C@H]2CCN(C(=O)N3CC(OCc4ccc(OC(F)(F)F)c(F)c4)C3)C[C@H]2N1` [Example 288], for which the IC50 came to 53 nM. In turn, `COc1cc(COC2CN(C(=O)N3CC[C@@H]4OCC(=O)N[C@@H]4C3)C2)ccc1C(F)(F)F` [Example 88] came in with an IC50 of 5 nM. In the case of `O=C1CO[C@H]2CCN(C(=O)N3CC(OCc4cc(Cl)ccc4Cl)C3)C[C@H]2N1` [Example 225] it was 7 nM; in that of `O=C1CO[C@H]2CCN(C(=O)N3CC(Oc4ccc(Cl)c(C5CC5)c4)C3)C[C@H]2N1` [Example 256], 11 nM; in that of `O=C1CO[C@H]2CCN(C(=O)N3CC(OCc4ccc(S(F)(F)(F)(F)F)cc4F)C3)C[C@H]2N1` [Example 240], 16 nM.

Consider `Cc1ccc(/C=C/C2CN(C(=O)N3CC[C@@H]4OCC(=O)N[C@@H]4C3)C2)c(F)c1` [Example 287], for which the IC50 was 6 nM. `O=C1CO[C@H]2CCN(C(=O)N3CCC(Oc4cc(-n5cncn5)cc(C(F)(F)F)c4)CC3)C[C@H]2N1` [Example 203] displayed an IC50 of 871 nM.

As for `O=C1CO[C@H]2CCN(C(=O)N3CCCC(Cc4ccc(C(F)(F)F)cc4)CC3)C[C@H]2N1` (stereo partly shown) [Example 142], the IC50 came to 75 nM. In turn, `O=C1CO[C@H]2CCN(C(=O)N3CCC(Oc4ccc(Cl)cc4)CC3)C[C@H]2N1` [Example 210] displayed a 50% inhibitory concentration (IC50) of 80 nM. For `CC1CN(c2cc(OC3CN(C(=O)N4CC[C@@H]5OCC(=O)N[C@@H]5C4)C3)ccc2C(F)(F)F)C1` [Example 266, (+)-(4aR,8aS)-6-[3-[3-(3-Methylazetidin-l-yl)-4-(trifluoromethyl)phenoxy]azetidine-1-carbonyl]-4,4a,5,7,8,8a-hexahydropyrido[4,3-b][l,4]oxazin-3-one], the IC50 came to 18 nM. Turning to `O=C1CO[C@H]2CCN(C(=O)N3CC(Oc4ccc(Cl)c(Br)c4)C3)C[C@H]2N1` [Example 264], the IC50 is 84 nM. Take `O=C1CO[C@H]2CCN(C(=O)N3CCC(Oc4cc(C(F)(F)F)ccc4F)C3)C[C@H]2N1` (stereo partly shown) [Example 285]: the IC50 is 2600 nM.

Consider `Cc1cc(OC[C@H]2CCN(C(=O)N3CC[C@@H]4OCC(=O)N[C@@H]4C3)C[C@H]2C)cnc1C(F)(F)F` [Example 232], for which half-maximal inhibition (IC50) required 61 nM. As to `O=C1CO[C@H]2CCN(C(=O)N3CCC(Oc4cccc(C(F)(F)F)c4Cl)CC3)C[C@H]2N1` [Example 257], the half-inhibitory concentration (IC50) came to 14 nM. In the case of `CC1(F)CN(c2cccc(OC3CN(C(=O)N4CC[C@@H]5OCC(=O)N[C@@H]5C4)C3)c2Cl)C1` [Example 273, (+)-(4aR,8aS)-6-[3-[2-Chloro-3-(3-fluoro-3-methyl-azetidin-1-yl)phenoxy]azetidine-1-carbonyl]-4,4a,5,7,8,8a-hexahydropyrido[4,3-b] [1,4] oxazin-3-one], the concentration for half-maximal inhibition (IC50) was determined as 89 nM. With `C[C@@H]1[C@@H](Oc2cc(C(F)(F)F)ccc2Br)CCN1C(=O)N1CC[C@@H]2OCC(=O)N[C@@H]2C1` [Example 247], half-maximal inhibition (IC50) required 1100 nM.

Compound `O=C1CO[C@H]2CCN(C(=O)N3CCC(COc4cccc(Cl)c4)C3)C[C@H]2N1` (stereo partly shown) [Example 90] yielded an IC50 of 168 nM. In the case of `O=C1CO[C@H]2CCN(C(=O)N3CC(OCC4(c5ccc(Cl)cc5Cl)CC4)C3)C[C@H]2N1` [Example 241] it was 15 nM. `N#Cc1cc(OC2CN(C(=O)N3CC[C@@H]4OCC(=O)N[C@@H]4C3)C2)ccc1C(F)(F)F` [Example 263, (+)-5-[1-[(4aR,8aS)-3-Oxo-4,4a,5,7,8,8a-hexahydropyrido[4,3-b][1,4]oxazine-6-carbonyl]azetidin-3-yl]oxy-2-(trifluoromethyl)benzonitrile]: half-maximal inhibition (IC50) required 1100 nM.

In turn, `CC1CN(c2cccc(OC3CN(C(=O)N4CC[C@@H]5OCC(=O)N[C@@H]5C4)C3)c2Cl)C1` [Example 272, (+)-(4aR,8aS)-6-[3-[2-Chloro-3-(3-methylazetidin-1-yl)phenoxy]azetidine-1-carbonyl]-4,4a,5,7,8,8a-hexahydropyrido[4,3-b][l,4]oxazin-3-one] gave an IC50 of 94 nM. In turn, `CC1C(Oc2cc(C(F)(F)F)ccc2Br)CCN1C(=O)N1CC[C@@H]2OCC(=O)N[C@@H]2C1` (stereo partly shown) [Example 246] displayed an IC50 of 1000 nM.

For the compound `O=C1CO[C@H]2CCN(C(=O)N3CCC(Oc4ccc(Cl)c(C(F)(F)F)c4)CC3)C[C@H]2N1` [Example 119], the IC50 amounted to 14 nM. The compound `O=C1CO[C@H]2CCN(C(=O)N3CC(CC(F)(F)c4ccc(C(F)(F)F)cc4)C3)C[C@H]2N1` [Example 281] came in with an IC50 of 35 nM. With `Cc1cccc(COC2CN(C(=O)N3CC[C@@H]4OCC(=O)N[C@@H]4C3)C2)c1C` [Example 290] the figure was 44 nM. Compound `O=C1CO[C@H]2CCN(C(=O)N3CCC(Oc4ccc(C(F)(F)F)cc4F)CC3)C[C@H]2N1` [Example 254] registered an IC50 of 64 nM. Take `O=C1CO[C@H]2CCN(C(=O)N3CC(Oc4ccc(C(F)(F)F)c(N5CC(F)(F)C5)c4)C3)C[C@H]2N1` [Example 267, (+)-(4aR,8aS)-6-[3-[3-(3,3-Difluoroazetidin-1-yl)-4-(trifluoromethyl)phenoxy]azetidine-1-carbonyl]-4,4a,5,7,8,8a-hexahydropyrido[4,3-b][l,4]oxazin-3-one]: the concentration for half-maximal inhibition (IC50) is 42 nM. Compound `O=C1CO[C@H]2CCN(C(=O)N3CC(OCc4ccc(Cl)c(Cl)c4)C3)C[C@H]2N1` [Example 224] showed an IC50 of 3 nM. The compound `O=C1CO[C@H]2CCN(C(=O)N3CCC(Oc4cc(C(F)(F)F)ccc4F)C3)C[C@H]2N1` (stereo partly shown) [Example 283] had an IC50 of 179 nM.

For orientation: IC50 means the concentration at which inhibition is half-maximal.
